Assay [1] concerns ethanol withdrawal-induced seizures in C57BL/6 mice. Briefly: Ethanol withdrawal-induced seizures. Format: in vivo. To be noted: single 100 mg/kg i.p. at 0900 hours. The text has this:
Male C57BL/6 mice were housed individually. One group of mice were each given a measured amount of liquid diet (BioServ) containing 6.7% ethanol (v/v) and a second, control group of mice each received the same diet with maltodextrin substituted isocalorically for ethanol, as their sole nutrient source for 7 days. A description of such a test can be found in Grant, K. A., et al., “ETHANOL WITHDRAWAL SEIZURES AND THE NMDA RECEPTOR COMPLEX,” Eur. J. Pharmacol., 176 289–296, (1990), the relevant disclosures of which are incorporated herein by reference. Pair-fed mice were given a volume of liquid diet equal to the average volume that the ethanol-fed mice consumed on the previous day. This treatment regimen produces mice that are functionally tolerant to and physically dependent on ethanol. Beginning at 0700 hours on the eighth day of the diet, ethanol-containing diet was replaced with control liquid diet (“withdrawal”).
Withdrawal seizure severity was assessed by measuring the incidence of handling-induced and spontaneous seizures, which were rated on a rating scale of 0 to 4, modified from a rating scale described by Grant, K. A., et al. in the above cited article. The rating scale was as follows: 0, little or no reaction; 1, slight jerkiness upon handling; 2, excitability increasing in magnitude to a clonic-tonic seizure; 3, spontaneous or instantaneous clonic-tonic seizure; 4, death while in a seizure. The mice were rated for seizure severity at 2, 4, 6, 7, 8, 9, 10, 11, 12 and 24 hours after ethanol withdrawal. Groups of ethanol-fed mice were injected intraperitoneally at 0700, 1100 and 1400 hours with saline, 3, 10 or 17 mg/kg (±)HA-966 (FIG. 5A) or 10, 17 or 30 mg/kg 7-Cl kynurenic acid (FIG. 5B).
Male C57BL/6 mice were fed ethanol in a liquid diet and the withdrawal seizure severity was assessed as described in EXAMPLE 5. Groups of ethanol-fed mice received a single injection (i.p.) of either vehicle (4% Tween-80, 0.5% carboxymethylcellulose in 0.9% saline) alone or of 100 mg/kg DCUK-OMe suspended in the vehicle administered at 0900 hours. The results are presented in FIG. 6A as the median withdrawal scores of vehicle-injected (N=14) or DCUK-OMe injected (N=6) mice in which * denotes P<0.05, statistically compared to vehicle-injected mice, in the Mann-Whitney U test. FIG. 6B presents the same data as the total withdrawal score, defined as the area enclosed by the curve connecting median withdrawal scores plotted against time as in FIG. 6A. The mean total withdrawal scores±SEM for the vehicle-injected group and DCUK-OMe-injected groups are plotted in which * denotes P<0.05, statistically compared to vehicle-injected mice, by the Student t-test.

For assay [2], the target named is T1, NR1a/NR2A recombinant receptors (Homo sapiens, UniProt Q05586+Q12879).
T1 construct: expressed in transfected cells; host or cells: Xenopus laevis oocytes, nuclear cDNA injection
Nature of the assay: NMDA-induced currents in oocytes expressing NR1a/NR2A. Format: cell-based. To be noted: 100 μM NMDA, 1 μM glycine, oocytes; read-out: IC50, inhibition of NMDA-induced currents. As for the experimental part: (§1) Oocytes were obtained from Xenopus laevis frogs (Nasco or Xenopus I) kept in aquarium tanks at 19–21° C., on a 12 hr light/dark cycle. Mature females were anesthetized by immersion for approximately 30 min in a 0.12% 3-aminobenzoic acid ethyl ester solution, a small incision was made in the abdominal wall and a piece of ovary was removed and placed in Modified Barth's solution (MBS; in mM) containing 88 NaCl, 1 KCl, 10 HEPES, 0.82 MgSO4, 2.4 NaHCO3, 0.91 CaCl2, 0.33 Ca(NO3)2 (pH 7.5). To facilitate manual dissection of oocytes, a section of ovary was transferred from MBS to a hypertonic buffer containing 108 mM NaCl, 2 mM KCl, 2 mM EDTA, 10 mM HEPES, pH 7.5 and theca and epithelial layers of mature oocytes (stages V and VI) were removed with surgical forceps. The follicular layer was removed by a 10 min immersion in 0.5 mg/ml of collagenase in buffer containing 83 mM NaCl, 2 mM KCl, 1 mM MgCl2 and 5 mM HEPES.
(§2) Human NR1a, NR2A and NR2B cDNAs in pCDNA-1Amp were transformed and amplified in XL-1 Blue cells and purified with the MaxPrep Qiagen kit. Oocytes were injected with cDNA into the nucleus in the following concentrations: NR1a/2A cDNAs 0.75 ng/30 nl 1:1 ratio, NR1a/2B cDNAs 3.0 ng/30 nl: 1:1 ratio. Injections were made with micropipettes (10 μm tip diameter) connected to a Drummond micropipettor attached to a micromanipulator. After injection, oocytes were individually placed in wells of 96-well microtiter plates containing incubation medium (MBS supplemented with 10 mg/l streptomycin, 10,000 U/l penicillin G, 50 mg/l gentamicin, 2 mM sodium pyruvate, 0.5 mM theophylline) that had been sterilized by passage through a […]. Oocytes were incubated at 19° C. for 2 to 4 days after injection.
(§3) Oocytes were placed in a rectangular chamber (approximately […]) and perfused (2 ml/min) with frog Ringer (in mM) containing 115 NaCl, 2.5 KCl, 1.8 CaCl2, 10 HEPES (pH 7.2). […] Control responses were always measured before and after addition of the DCUKA. […] Data are expressed as the % inhibition of the agonist response obtained in the absence of the drug.

The target in assay [3] is T2, NR1a/NR2A recombinant receptors (Homo sapiens, UniProt Q05586).
T2 construct: expressed in transfected cells; host or cells: Xenopus laevis oocytes, nuclear cDNA injection
The assay is described as above. To be noted: 100 μM NMDA, 50 μM DCUKA, increasing glycine up to 100 μM. Format: cell-based. As for the experimental part:
as §1, §2, §3

Molecules are shown by their SMILES.

One may read the IC50 as the midpoint of a concentration-inhibition curve.

Turning to `COC(=O)c1cc(NC(=O)N(c2ccccc2)c2ccccc2)c2c(Cl)cc(Cl)cc2n1` [DCUK-OMe, (N,N-diphenyl)-4-ureido-5,7-dichloro-2-carboxy-quinoline methyl ester], the ethanol withdrawal severity result in assay [1] is listed as “reduces ethanol withdrawal severity”. As to `O=C(O)c1cc(NC(=O)N(c2ccccc2)c2ccccc2)c2c(Cl)cc(Cl)cc2n1` [DCUKA, (N,N-diphenyl)-4-ureido-5,7-dichloro-2-carboxy-quinoline], the IC50 in assay [2] amounted to 12.8 µM. Further, the “reversal by glycine of inhibition of NMDA-induced currents” value in assay [3] is “could not be overcome by glycine, even at a 100 μM concentration”.
